According to patent US20250051301A1, “MUTANT IDH1 AND IDH2 INHIBITOR AND APPLICATION THEREOF” (Betta Pharmaceuticals Co., Ltd, priority 2022, published 2025):

What was measured:
IDH1^R132H [1] = biological target: T1, IDH1^R132H (Homo sapiens, UniProt O75874, R132H); assay: 2-HG assay in cells (U87 cell line stably transfected with IDH1-R132H); type: cell-based; conditions: 72 hours, read-out: 2-HG in medium (IC50, nM) (IDH1^R132H)
Experimental: The compounds were detected for the inhibition of 2-HG production in the U87 cell line stably transfected with IDH1-R132H and the culture supernatant of TF-1 cells stably transfected with IDH2-R140Q. • (1) The cultured cells were collected by centrifugation, then suspended in a cell culture solution, counted, and seeded in a 96-well cell culture plate at 160 μL of cell suspension/well (20000 cells/well for U87-IDH1-R132H; 10000 cells/well for TF-1-IDH2-R140Q). • (2) A 96-well plate dilution was taken, and the compounds to be tested were diluted in a gradient manner in DMSO and a cell culture solution; and then 40 μL of the gradient-diluted compounds to be tested were added to the 96-well plate on which cells have been plated. […] Finally, the plate was cultured in a 37° C. incubator containing 5% CO2. • (3) After the compounds were incubated with the cells for 72 hours, the cell culture plate was taken out and centrifuged at 1500 rpm for 5 minutes, and then 100 μL of the medium supernatant was aspirated for 2-HG detection. • (4) 2-HG detection: the cell supernatant was diluted with purified water, 30 μL of the diluted sample was taken into a 1.5 ml centrifuge tube, and 200 μL of the internal standard solution was added. The mixture was mixed uniformly by vortex and centrifuged at 3200 rpm at 4° C. for 15 minutes. 100 μL of the supernatant solution was diluted with water at a 1:1 ratio and then detected by LC-MS. Analyte Peak Area was used to represent the 2-HG levels. • (5) Inhibition rate calculation, formula: % Inhibition=(1−Analyte Peak Area_sample/Analyte Peak Area_max)*100%, wherein Analyte Peak Area_sample represents the Analyte Peak Area of the sample to which the compound was added; Analyte Peak Area_max represents the average value of Analyte Peak Area of positive control wells (representing the absence of the compound). The curve fitting was performed using Graphpad Prism software to obtain IC50 values, and the test results were as shown in table 2.

IDH1^R132H [2] = biological target: T1, IDH1^R132H; assay: Enzyme activity inhibition assay (fluorescence-based), IDH1 R132H; type: biochemical
Experimental: The inhibitory ability of the compounds on the enzyme activities of IDH1^R132H and IDH2^R140Qwas detected and expressed as the half inhibitory concentration (IC50) value. AG-881 was used as a positive control compound. In this experiment, compounds were screened on enzymes IDH1^R132H and IDH2^R140Q using a fluorescence-based method (initial concentration: 10000 nM, 3-fold dilution, 10 concentrations, and single-well detection). • (1) Preparation of 1×assay buffer. • (2) Preparation of compound concentration gradient: the compounds to be tested were assayed at an initial concentration of 10000 nM, with 3-fold dilution and 10 concentrations, and diluted into 200-fold the final concentration in 100% DMSO solution in a 384-well plate. • (3) 250 nL of DMSO and 250 nL of diluted compounds were transferred to a reaction plate with Echo 550. • (4) IDH2^R140Q enzyme detection: 25 μL of an IDH2^R140Q enzyme solution was added, and the mixture was incubated for 60 minutes; then 25 μL of a substrate solution was added, and the mixture was incubated for 150 minutes; then 25 μL of a detection buffer was added, and the mixture was shaken for 1 minute and incubated for 60 minutes; and finally, Synergy 2, Ex544/Em590 cutoff 590 was used for reading. • (5) IDH1^R132H enzyme detection: 40 μL of a mixture solution of an IDH1^R132H enzyme at the 1.25-fold final concentration and NADPH was added, and the mixture was incubated for 60 minutes; then 10 μL of a substrate solution at the 5-fold final concentration was added, and the mixture was incubated for 90 minutes; then 25 μL of a detection buffer at the 3-fold final concentration was added, and the mixture was shaken for 1 minute. and finally, Synergy 2, Ex544/Em590 cutoff 590 was used for reading. • (8) Inhibition rate calculation, formula: % Inhibition=(RFU_sample−RFU_min)/(RFU_max−RFU_min)*100%, wherein RFU-sample represents the fluorescence intensity of a sample; RFU-min represents the average value of negative control wells and represents the fluorescence intensity with an enzyme; and RFU-max represents the average value of positive control wells and represents the fluorescence intensity without an enzyme. The curve fitting was performed using Graphpad Prism software to obtain IC50 values, and the test results were as shown in table 2.

T1 sequence (O75874 whole entry R132H): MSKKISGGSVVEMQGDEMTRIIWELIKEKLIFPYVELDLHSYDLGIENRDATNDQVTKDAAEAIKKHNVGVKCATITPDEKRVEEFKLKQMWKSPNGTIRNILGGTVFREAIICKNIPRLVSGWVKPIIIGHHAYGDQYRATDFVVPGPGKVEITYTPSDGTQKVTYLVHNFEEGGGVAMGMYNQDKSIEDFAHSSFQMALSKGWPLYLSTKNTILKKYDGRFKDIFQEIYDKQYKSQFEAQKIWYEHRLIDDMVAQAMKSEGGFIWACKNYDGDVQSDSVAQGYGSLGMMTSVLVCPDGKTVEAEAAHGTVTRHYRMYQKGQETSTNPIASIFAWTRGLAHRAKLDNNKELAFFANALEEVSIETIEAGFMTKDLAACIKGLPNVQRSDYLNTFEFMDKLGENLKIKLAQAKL

SMILES | IC50 (IDH1^R132H [1]; numeric values) [nM] | IC50 (IDH1^R132H [2]; numeric values) [nM] | IC50 (IDH1^R132H [1]; class symbols) [nM] | IC50 (IDH1^R132H [2]; class symbols) [nM]
C[C@@H](Nc1nc(N[C@H](C)C(F)(F)F)nc(-c2ccc(N)c(Cl)n2)n1)C(F)(F)F [Example 2] | 17 | 22 | – | –
COc1cc(-c2nc(N[C@H](C)C(F)(F)F)nc(N[C@H](C)C(F)(F)F)n2)nc(Cl)c1N [Example 3, 6-(5-amino-6-chloro-4-methoxypyridin-2-yl)-N^2,N^4-bis((R)-1,1,1-trifluoroprop-2-yl)-1,3,5-triazine-2,4-diamine] | – | – | > 1000 | > 1000
C[C@@H](Nc1nc(N[C@H](C)C(F)(F)F)nc(-c2nc(Cl)c(N)cc2F)n1)C(F)(F)F [Example 4, 6-(5-amino-6-chloro-3-fluoropyridin-2-yl)-N^2,N^4-bis((R)-1,1,1-trifluoroprop-2-yl)-1,3,5-triazine-2,4-diamine] | – | – | > 1000 | > 1000
C[C@@H](Nc1nc(N[C@H](C)C(F)(F)F)nc(-c2cc(F)c(O)c(Cl)n2)n1)C(F)(F)F [Example 10, 6-(4,6-bis(((R)-1,1,1-trifluoroprop-2-yl)amine)-1,3,5-triazin-2-yl)-2-chloro-4-fluoropyridin-3-ol] | – | – | 100 to 1000 | > 1000
C[C@@H](Nc1nc(N[C@H](C)C(F)(F)F)nc(-c2cc(F)c(N)c(C(F)(F)F)n2)n1)C(F)(F)F [Example 13, 6-(5-amino-4-fluoro-6-(trifluoromethyl)pyridin-2-yl)-N^2,N^4-bis((R)-1,1,1-trifluoroprop-2-yl)-1,3,5-triazine-2,4-diamine] | – | – | 100 to 1000 | > 1000
C[C@@H](Nc1nc(N[C@H](C)C(F)(F)F)nc(-c2cc(F)c(Cl)c(Cl)n2)n1)C(F)(F)F [Example 17, 6-(5,6-dichloro-4-fluoropyridin-2-yl)-N^2,N^4-bis((R)-1,1,1-trifluoroprop-2-yl)-1,3,5-triazine-2,4-diamine] | – | – | ≤ 50 | ≤ 50
CNc1c(Cl)cc(-c2nc(N[C@H](C)C(F)(F)F)nc(N[C@H](C)C(F)(F)F)n2)nc1Cl [Example 20, 6-(4,6-dichloro-5-methylaminopyridin-2-yl)-N^2,N^4-bis((R)-1,1,1-trifluoroprop-2-yl)-1,3,5-triazine-2,4-diamine] | – | – | – | > 1000
C[C@@H](Nc1nc(N[C@H](C)C(F)(F)F)nc(-c2cc(Cl)c(N(C)C)c(Cl)n2)n1)C(F)(F)F [Example 21, 6-(4,6-dichloro-5-dimethylaminopyridin-2-yl)-N^2,N^4-bis((R)-1,1,1-trifluoroprop-2-yl)-1,3,5-triazine-2,4-diamine] | – | – | – | 100 to 1000
C[C@@H](Nc1nc(N[C@H](C)C(F)(F)F)nc(-c2cc(OC(F)F)c(N)c(Cl)n2)n1)C(F)(F)F [Example 22, 6-(5-amino-6-chloro-4-(difluoromethoxy)pyridin-2-yl)-N^2,N^4-bis((R)-1,1,1-trifluoropropyl-2-yl)-1,3,5-triazine-2,4-diamine] | – | – | – | > 1000

Now from value to compound:

IC50 (IDH1^R132H [1]; numeric values) [nM] | IC50 (IDH1^R132H [2]; numeric values) [nM] | IC50 (IDH1^R132H [1]; class symbols) [nM] | IC50 (IDH1^R132H [2]; class symbols) [nM] | SMILES
– | – | 50 to 100 | 100 to 1000 | C[C@@H](Nc1nc(N[C@H](C)C(F)(F)F)nc(-c2cc(Br)c(N)c(Cl)n2)n1)C(F)(F)F [Example 6, 6-(5-amino-4-bromo-6-chloropyridin-2-yl)-N^2,N^4-bis((R)-1,1,1-trifluoropropyl-2-yl)-1,3,5-triazine-2,4-diamine]
– | – | > 1000 | > 1000 | C=Cc1cc(-c2nc(N[C@H](C)C(F)(F)F)nc(N[C@H](C)C(F)(F)F)n2)nc(Cl)c1N [Example 9, 6-(5-amino-6-chloro-4-vinylpyridin-2-yl)-N^2,N^4-bis((R)-1,1,1-trifluoropropyl-2-yl)-1,3,5-triazine-2,4-diamine]
– | – | 100 to 1000 | > 1000 | C[C@@H](Nc1nc(N[C@H](C)C2CC2)nc(-c2cc(F)c(N)c(Cl)n2)n1)C1CC1 [Example 11, 6-(5-amino-6-chloro-4-fluoropyridin-2-yl)-N^2,N^4-bis((R)-1-cyclopropylethyl)-1,3,5-triazine-2,4-diamine]
– | – | ≤ 50 | ≤ 50 | Nc1c(F)cc(-c2nc(NC3CC(F)(F)C3)nc(NC3CC(F)(F)C3)n2)nc1Cl [Example 12, 6-(5-amino-6-chloro-4-fluoropyridin-2-yl)-N^2,N^4-bis(3,3-difluorocyclobutyl)-1,3,5-triazine-2,4-diamine]
